{
  "source": "patent US20250255876A1",
  "about": "“COMPOSITIONS AND METHODS FOR CANCER TREATMENT” (ARIEL SCIENTIFIC INNOVATIONS LTD., priority 2021, published 2025)",
  "key": {"B16F10 cells [1]": {"system": "B16F10 cells", "experiment": "Colony survival assay, B16F10 cells", "type": "cell-based, mouse", "experimental": "(14B) Colony survival assay of H1975 cell line. (14C) Colony survival assay of A549 cell line. (14D) Colony survival assay of B16F10 cell line. All cell lines were treated with 50 μM c #3 and the indicated concentration of cisplatin for 48 h, then growth media was replaced with normal growth media with no compound. Cells were allowed to recover 4-5 days before staining. For all cell lines, colony survival assay n=3 independent experiments, SD=1. P value was calculated by two-way ANOVA multiple comparison. IC50 was calculated using linear regression for H1975 and A549, and sigmoidal regression for B16F10.\nColony survival assay to compare the relative survival rate of cells treated with cisplatin alone, or with combined treatment of cisplatin and 50 μM of compound 3 (see FIG. 1). Molecule presented preliminary promising results, We tested compound 3 (c #3) on different cancer cell lines: two lung cancer cell lines, (1) human non-small cell lung carcinoma H1975 cells, (2) epithelial lung adenocarcinoma A549 cells, and (3) mouse aggressive melanoma B16F10 cells."}, "MAD2L2": {"target": "MAD2L2 (Homo sapiens, UniProt Q9UI95)", "sequence (Q9UI95 whole entry)": "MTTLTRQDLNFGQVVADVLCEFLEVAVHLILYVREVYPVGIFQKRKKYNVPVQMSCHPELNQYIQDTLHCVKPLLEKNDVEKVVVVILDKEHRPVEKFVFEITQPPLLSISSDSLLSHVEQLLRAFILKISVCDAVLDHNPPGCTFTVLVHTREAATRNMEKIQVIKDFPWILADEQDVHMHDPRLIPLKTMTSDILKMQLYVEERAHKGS", "experiment": "Field Effect Biosensing (FEB) binding assay", "parameters": "made in house; host or cells: E. coli BL21 Star", "experimental": "E. coli BL21 Star cells were transfected with GST-MAD2L2 vector. Protein induction was done for 4 hours in 30° C., with 1 mM IPTG. Purification was done according to standard GST protocol.\nThe binding kinetics of MAD2L2 to the small molecule compounds were measured by the Field Effect Biosensing (FEB) Agile R100 label-free binding assay (Nanomedical Diagnostics Inc), following their standard protocol. Briefly, 500 nM of purified MAD2L2 was immobilized on a graphene sensor chip through amine groups. The current baseline level for the chip was recorded in PBS. Next, PBS was aspirated, and the changes in the baseline current induced by 50 μl of 1, 10, 20, 30, 40 and 50 μM droplets of the tested compound were recorded. KD values were calculated by the DataLine 2.0 software by either a Hill equation fit or by using the kon and koff values at a single concentration. The KD values obtained by these two methods were almost identical.\nIn order to validate that MAD2L2 is a direct target of c #2 and c #3, the inventors tested the compounds' binding kinetics to a recombinant protein by Field Effect Biosensing (FEB) technology. Briefly, purified GST-MAD2L2 was immobilized onto a graphite chip, and the current across the chip is measured to determine the baseline current. […] The Kon and Koff of the interaction were measured over time and were used to calculate the KD. […]"}, "[2]": {"system": "γH2AX foci in B16F10 cells", "experiment": "γH2AX foci immunofluorescence, B16F10 cells", "type": "cell-based, mouse", "experimental": "FIGS. 15A-15B3 present micrographs and graphs showing that c #3 increases DNA damage after combined treatment. (15A). Representative figures of TH2AX in A549 cells (left panel), H1975 (middle panel) and B16F10 (right panel) with different treatments as indicated. Quantification of A549 (15B1), H1975(15B2), and B16F10 cells(15B3)′ foci/cell in each treatment. The total number of cells scored is indicated. Error bars=1 SD, P-value was calculated by two-tailed t-test. In all experiments, A549 cells were treated with 10 μM cisplatin and H1975 and B16F10 cells with 5 μM cisplatin. All cell lines were co-treated with 50 μM of c #3. Cells were co-treated for 16 h before analysis.SD=1, The P-value was calculated using a one-tailed t-test.\nCombined treatment of cisplatin with c #3 correlates with an increase in DNA damage. Levels of γ-H2AX foci, a marker for DNA double-strand breaks, were compared in H1975, A549 and B16F10 cell lines."}, "B16F10 cells [3]": {"system": "B16F10 cells", "experiment": "B16F10 subcutaneous tumor in C57BL mice, intratumoral injection", "type": "in vivo, mouse", "experimental": "FIGS. 17A-17E are micrographs and graphs showing that C#3 prevents tumor growth. 2*106 B16F10 cells were injected to the left flank of C57BL mice. After three days different treatments, as indicated, were injected to the newly formed tumor. (17A) tumor size (mm3) was measured daily for each mouse. In the co-treatment, almost no change in tumor size was observed, in the first three days. (17B) representative images of three tumors from each treatment group. (17C) For each treatment the fold-change in the volume of each day was compared to day 0. […] (17D) The co-treated group presented less developed tumors, which comprised about 2-3% of mice weight. (17E) H&E staining of a representative tumor from each group. Number of mice for each group in this experiment: DMSO n=7, cisplatin n=10, cisplatin+c #3 n=10, c #3 n=9. SD=1. P-values were calculated by one-tailed t-test. C#3 prevents tumor growth. To test the effect of c #3 in-vivo, we used a […] mouse model of C57BL mice. B16F10 cells were injected to the mouse's left flank and allowed to form a subcutaneous tumor. Next, we injected directly to the tumor DMSO, cisplatin, cisplatin+c #3 1 mg/kg, or c #3 alone, and tumor size was measured each day, up to 6 days. […] DNA damage burden in these fast-growing tumors is high, and TLS inhibition using c #3 prevents repair and enhances cell death. […]"}},
  "note": "“Also recorded” adds a separate entry of the source.",
  "data": [
    {"smiles": "Cc1oc(-c2ccco2)nc1CC(=O)N[C@@H](C(=O)O)c1ccccc1", "note": "[Compound 3]", "values": [
      {"measurement": "toxicity, compound alone", "setting": "B16F10 cells [1]; B16F10, 50 μM compound alone", "result": "caused no toxicity"},
      {"measurement": "sensitization to cisplatin", "setting": "B16F10 cells [1]; B16F10, cisplatin + 50 μM c #3, 48 h", "result": "sensitization to cisplatin treatment"},
      {"measurement": "affinity to MAD2L2 compared with c #2", "setting": "MAD2L2; from FEB KD values, listed as c #3", "result": "approximately seven-fold higher; also recorded: sevenfold higher"},
      {"measurement": "Kd", "setting": "MAD2L2; purified GST-MAD2L2 immobilized on chip, 1-50 μM compound", "result": 44.9, "unit": "µM"},
      {"measurement": "increase in γ-H2AX foci/cell in co-treated cells", "setting": "[2]; B16F10, 5 μM cisplatin + 50 μM c #3, 16 h", "result": 2, "unit": "fold"},
      {"measurement": "γ-H2AX signal, c #3 alone", "setting": "[2]; B16F10, c #3 alone", "result": "no effect on the γ-H2AX signal"},
      {"measurement": "tumor growth (tumor volume, fold-change), co-treatment", "setting": "B16F10 cells [3]; cisplatin 1 mg/kg + c #3 1 mg/kg injected into the tumor, listed as c #3", "result": "prevented tumor growth in the first three days; also recorded: significant growth inhibition when compared to all treatments"},
      {"measurement": "tumor histopathology (H&E), co-treatment", "setting": "B16F10 cells [3]; cisplatin + c #3 co-treated, two tumors from each group", "result": "severe necrosis"}
    ]}
  ]
}
